# ChEMBL document CHEMBL1201862, “PubChem BioAssay data set” (2004)
#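 Five concentrations, 48 hours, 96-well plates. Abbreviation: GI50, concentration required for 50% inhibition of growth.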 Active and inactive are the calls of the source. Cut-off read from the data, not from the text of the source: active = GI50 up to about 1.1 µM and inactive = higher.
# Key:
# Experiment in all cases: NCI-60 cell line screen, 48 h
# DU-145 = test system: DU-145
# KM12 = test system: KM12
# SF-268 = test system: SF-268
# PC-3 = test system: PC-3
# SK-OV-3 = test system: SK-OV-3
# SF-539 = test system: SF-539
# U-251 = test system: U-251
# 786-0 = test system: 786-0
# SR = test system: SR
# ACHN = test system: ACHN
# SK-MEL-2 = test system: SK-MEL-2
# TK-10 = test system: TK-10
# NCI/ADR-RES = test system: NCI/ADR-RES
# SNB-19 = test system: SNB-19
# RPMI-8226 = test system: RPMI-8226
# MDA-N = test system: MDA-N
# MCF7 = test system: MCF7
# UACC-257 = test system: UACC-257
# HCC 2998 = test system: HCC 2998
# CCRF-CEM = test system: CCRF-CEM
# SK-MEL-28 = test system: SK-MEL-28
# MDA-MB-231 = test system: MDA-MB-231
# OVCAR-8 = test system: OVCAR-8
# SNB-75 = test system: SNB-75
# SF-295 = test system: SF-295
# SK-MEL-5 = test system: SK-MEL-5
# Hs-578T = test system: Hs-578T
# K562 = test system: K562
# HCT-15 = test system: HCT-15
# A549 = test system: A549
# MDA-MB-435 = test system: MDA-MB-435
# SW-620 = test system: SW-620
# HCT-116 = test system: HCT-116
# NCI-H460 = test system: NCI-H460
# HT-29 = test system: HT-29
# NCI-H23 = test system: NCI-H23
# MOLT-4 = test system: MOLT-4
# COLO 205 = test system: COLO 205
# T47D = test system: T47D
# EKVX = test system: EKVX
# A498 = test system: A498
# OVCAR-5 = test system: OVCAR-5
# LOX IMVI = test system: LOX IMVI
# IGROV-1 = test system: IGROV-1
# HOP-62 = test system: HOP-62
# NCI-H522 = test system: NCI-H522
# BT-549 = test system: BT-549
# SN12C = test system: SN12C
# HL-60 = test system: HL-60
# NCI-H226 = test system: NCI-H226
# OVCAR-4 = test system: OVCAR-4
# HOP-92 = test system: HOP-92
# UACC-62 = test system: UACC-62
# M14 = test system: M14
# UO-31 = test system: UO-31
# OVCAR-3 = test system: OVCAR-3
# RXF 393 = test system: RXF 393
# Malme-3M = test system: Malme-3M
# CAKI-1 = test system: CAKI-1
smiles,measurement,setting,value
c1nncn1C12C3C4C5C3C1C5C42 (stereo not drawn),GI50,DU-145,> 100 µM (inactive)
same,GI50,KM12,> 100 µM (inactive)
same,GI50,SF-268,> 100 µM (inactive)
same,GI50,PC-3,> 100 µM (inactive)
same,GI50,SK-OV-3,> 100 µM (inactive)
same,GI50,SF-539,> 100 µM (inactive)
same,GI50,U-251,> 100 µM (inactive)
same,GI50,786-0,> 100 µM (inactive)
same,GI50,SR,> 100 µM (inactive)
same,GI50,ACHN,> 100 µM (inactive)
same,GI50,SK-MEL-2,> 100 µM (inactive)
same,GI50,TK-10,> 100 µM (inactive)
same,GI50,NCI/ADR-RES,> 100 µM (inactive)
same,GI50,SNB-19,> 100 µM (inactive)
same,GI50,RPMI-8226,> 100 µM (inactive)
same,GI50,MDA-N,> 100 µM (inactive)
same,GI50,MCF7,> 100 µM (inactive)
same,GI50,UACC-257,> 100 µM (inactive)
same,GI50,HCC 2998,> 100 µM (inactive)
same,GI50,CCRF-CEM,> 100 µM (inactive)
same,GI50,SK-MEL-28,> 100 µM (inactive)
same,GI50,MDA-MB-231,> 100 µM (inactive)
same,GI50,OVCAR-8,> 100 µM (inactive)
same,GI50,SNB-75,> 100 µM (inactive)
same,GI50,SF-295,> 100 µM (inactive)
same,GI50,SK-MEL-5,> 100 µM (inactive)
same,GI50,Hs-578T,> 100 µM (inactive)
same,GI50,K562,> 100 µM (inactive)
same,GI50,HCT-15,> 100 µM
same,GI50,A549,> 100 µM (inactive)
same,GI50,MDA-MB-435,> 100 µM (inactive)
same,GI50,SW-620,> 100 µM (inactive)
same,GI50,HCT-116,> 100 µM (inactive)
same,GI50,NCI-H460,> 100 µM (inactive)
same,GI50,HT-29,> 100 µM (inactive)
same,GI50,NCI-H23,> 100 µM (inactive)
same,GI50,MOLT-4,> 100 µM (inactive)
same,GI50,COLO 205,> 100 µM (inactive)
same,GI50,T47D,> 100 µM (inactive)
same,GI50,EKVX,> 100 µM (inactive)
same,GI50,A498,> 100 µM (inactive)
same,GI50,OVCAR-5,> 100 µM (inactive)
same,GI50,LOX IMVI,> 100 µM (inactive)
same,GI50,IGROV-1,> 100 µM (inactive)
same,GI50,HOP-62,> 100 µM (inactive)
same,GI50,NCI-H522,> 100 µM (inactive)
same,GI50,BT-549,> 100 µM (inactive)
same,GI50,SN12C,> 100 µM (inactive)
same,GI50,HL-60,> 100 µM (inactive)
same,GI50,NCI-H226,> 100 µM (inactive)
O=C(Nc1ccccc1)c1cc(S(=O)(=O)NC2=Nc3ccc(Cl)cc3C(c3ccccc3)N2)c(SSc2cc(Cl)c(C(=O)Nc3ccccc3)cc2S(=O)(=O)NC2=Nc3ccc(Cl)cc3C(c3ccccc3)N2)cc1Cl (stereo not drawn),GI50,DU-145,> 100 µM (inactive)
same,GI50,KM12,> 100 µM (inactive)
same,GI50,SF-268,> 100 µM (inactive)
same,GI50,PC-3,> 100 µM (inactive)
same,GI50,SK-OV-3,> 100 µM (inactive)
same,GI50,SF-539,> 100 µM (inactive)
same,GI50,U-251,> 100 µM (inactive)
same,GI50,786-0,> 100 µM (inactive)
same,GI50,SR,13.6 µM (inactive)
same,GI50,ACHN,> 100 µM (inactive)
same,GI50,SK-MEL-2,> 100 µM (inactive)
same,GI50,TK-10,> 100 µM (inactive)
same,GI50,NCI/ADR-RES,> 100 µM (inactive)
same,GI50,SNB-19,> 100 µM (inactive)
same,GI50,RPMI-8226,55.3 µM (inactive)
same,GI50,MDA-N,> 100 µM (inactive)
same,GI50,MCF7,> 100 µM (inactive)
same,GI50,UACC-257,> 100 µM (inactive)
same,GI50,HCC 2998,> 100 µM (inactive)
same,GI50,OVCAR-4,> 100 µM (inactive)
same,GI50,HOP-92,> 100 µM (inactive)
same,GI50,SK-MEL-28,> 100 µM (inactive)
same,GI50,MDA-MB-231,> 45.3 µM (inactive)
same,GI50,OVCAR-8,> 100 µM (inactive)
same,GI50,SNB-75,> 100 µM (inactive)
same,GI50,UACC-62,> 89.9 µM (inactive)
same,GI50,SF-295,> 100 µM (inactive)
same,GI50,SK-MEL-5,> 100 µM (inactive)
same,GI50,Hs-578T,> 100 µM (inactive)
same,GI50,K562,38 µM (inactive)
same,GI50,HCT-15,> 100 µM
same,GI50,A549,> 100 µM (inactive)
same,GI50,MDA-MB-435,> 100 µM (inactive)
same,GI50,SW-620,> 100 µM (inactive)
same,GI50,M14,> 57.4 µM (inactive)
same,GI50,HCT-116,> 100 µM (inactive)
same,GI50,NCI-H460,> 100 µM (inactive)
same,GI50,HT-29,> 100 µM (inactive)
same,GI50,NCI-H23,> 100 µM (inactive)
same,GI50,MOLT-4,28.4 µM (inactive)
same,GI50,UO-31,> 100 µM (inactive)
same,GI50,COLO 205,> 100 µM (inactive)
same,GI50,T47D,> 100 µM (inactive)
same,GI50,EKVX,> 100 µM (inactive)
same,GI50,OVCAR-3,> 100 µM (inactive)
same,GI50,OVCAR-5,> 61.5 µM (inactive)
same,GI50,LOX IMVI,> 100 µM (inactive)
same,GI50,IGROV-1,> 100 µM (inactive)
same,GI50,HOP-62,> 80.5 µM (inactive)
same,GI50,RXF 393,> 100 µM (inactive)
same,GI50,Malme-3M,> 100 µM (inactive)
same,GI50,NCI-H522,> 100 µM (inactive)
same,GI50,BT-549,> 100 µM (inactive)
same,GI50,SN12C,> 100 µM (inactive)
same,GI50,CAKI-1,> 100 µM (inactive)
same,GI50,HL-60,> 36.1 µM (inactive)
same,GI50,NCI-H226,> 100 µM (inactive)
CC(C)[C@H]1NC(=O)[C@H]2N=C(S[C@H]2C)[C@@H]2CCCN2C(=O)[C@H](Cc2ccccc2)NC(=O)[C@@H]2CSC(=N2)[C@@H](Cc2ccccc2)NC(=O)[C@@H]2CSC1=N2,GI50,DU-145,> 50 µM (inactive)
same,GI50,KM12,12.3 µM (inactive)
same,GI50,SF-268,45.6 µM (inactive)
same,GI50,PC-3,14.6 µM (inactive)
same,GI50,SK-OV-3,35.5 µM (inactive)
same,GI50,SF-539,22.3 µM (inactive)
same,GI50,U-251,14.9 µM (inactive)
same,GI50,786-0,33.7 µM (inactive)
same,GI50,SR,5.65 µM (inactive)
same,GI50,ACHN,25.4 µM (inactive)
same,GI50,SK-MEL-2,18.3 µM (inactive)
same,GI50,TK-10,21.7 µM (inactive)
same,GI50,NCI/ADR-RES,19.7 µM (inactive)
same,GI50,SNB-19,24.2 µM (inactive)
same,GI50,RPMI-8226,7.62 µM (inactive)
same,GI50,MDA-N,30.2 µM (inactive)
same,GI50,MCF7,19.1 µM (inactive)
same,GI50,UACC-257,31.7 µM (inactive)
same,GI50,HCC 2998,10.7 µM (inactive)
same,GI50,OVCAR-4,10.9 µM (inactive)
same,GI50,CCRF-CEM,12.3 µM (inactive)
same,GI50,SK-MEL-28,14.1 µM (inactive)
same,GI50,MDA-MB-231,> 50 µM (inactive)
same,GI50,OVCAR-8,33.6 µM (inactive)
same,GI50,UACC-62,29.6 µM (inactive)
same,GI50,SF-295,30.3 µM (inactive)
same,GI50,SK-MEL-5,24.4 µM (inactive)
same,GI50,Hs-578T,15.1 µM (inactive)
same,GI50,K562,4.71 µM (inactive)
same,GI50,HCT-15,25.3 µM
same,GI50,A549,17.3 µM (inactive)
same,GI50,MDA-MB-435,13.7 µM (inactive)
same,GI50,SW-620,18.1 µM (inactive)
same,GI50,M14,25.7 µM (inactive)
same,GI50,HCT-116,30.9 µM (inactive)
same,GI50,HT-29,25.8 µM (inactive)
same,GI50,NCI-H23,40.3 µM (inactive)
same,GI50,MOLT-4,11.6 µM (inactive)
same,GI50,UO-31,21.8 µM (inactive)
same,GI50,COLO 205,16.1 µM (inactive)
same,GI50,T47D,35 µM (inactive)
same,GI50,EKVX,27.5 µM (inactive)
same,GI50,OVCAR-3,20 µM (inactive)
same,GI50,A498,19.2 µM (inactive)
same,GI50,OVCAR-5,> 50 µM (inactive)
same,GI50,LOX IMVI,29.7 µM (inactive)
same,GI50,IGROV-1,29 µM (inactive)
same,GI50,HOP-62,> 50 µM (inactive)
same,GI50,RXF 393,15.9 µM (inactive)
same,GI50,Malme-3M,> 50 µM (inactive)
same,GI50,NCI-H522,12.2 µM (inactive)
same,GI50,BT-549,> 50 µM (inactive)
same,GI50,SN12C,40.2 µM (inactive)
same,GI50,CAKI-1,> 50 µM (inactive)
same,GI50,HL-60,0.0912 µM (active)
same,GI50,NCI-H226,21 µM (inactive)
